# In patent publication US9365562B2, “1,3 substituted azetidine PDE10 inhibitors” (Merck Sharp & Dohme Corp., priority 2011, dated 2016):
# Target: human PDE10A2 (Homo sapiens (Human), UniProt Q9Y233)
# Assay: PDE10 fluorescence polarization (IMAP FP) inhibition assay
# Assay type: biochemical
# Conditions: apparent inhibition constant, FAM-labeled cAMP substrate 50 nM, room temperature
# Procedure: The activity of the compounds in accordance with the present invention as PDE10 inhibitors may be readily determined without undue experimentation using a fluorescence polarization (FP) methodology that is well known in the art (Huang, W., et al., J. Biomol Screen, 2002, 7: 215).
# In a typical experiment the PDE10 inhibitory activity of the compounds of the present invention was determined in accordance with the following experimental method. PDE10A2 was amplified from human fetal brain cDNA (Clontech, Mountain View, Calif.) using a forward primer corresponding to nucleotides 56-77 of human PDE10A2 (Accession No. AF127480, Genbank Identifier 4894716), containing a Kozak consensus sequence, and a reverse primer corresponding to nucleotides 2406-2413 of human PDE10A2 (Accession No. AF127480, Genbank Identifier 4894716). Amplification with Easy-A polymerase (Stratagene, La Jolla, Calif.) was 95° C. for 2 minutes followed by thirty three cycles of 95° C. for 40 seconds, 55° C. for 30 seconds, and 72° C. for 2 minutes 48 seconds. Final extension was 72° C. for 7 minutes. The PCR product was TA cloned into pcDNA3.2-TOPO (Invitrogen, Carlsbad, Calif.) according to standard protocol. AD293 cells with 70-80% confluency were transiently transfected with human PDE10A2/pcDNA3.2-TOPO using Lipofectamine 2000 according to manufacturer specifications (Invitrogen, Carlsbad, Calif.). Cells were harvested 48 hours post-transfection and lysed by sonication (setting 3, 10×5 sec pulses) in a buffer containing 20 mM HEPES, 1 mM EDTA and protease inhibitor cocktail (Roche). Lysate was collected by centrifugation at 75,000×g for 20 minutes. Supernatant containing the cytoplasmic fraction was used for evaluation of PDE10A2 activity. The fluorescence polarization assay for cyclic nucleotide phosphodiesterases was performed using an IMAP® FP kit supplied by Molecular Devices, Sunnyvale, Calif. (product # R8139). IMAP® technology has been applied previously to phosphodiesterase assays (Huang, W., et al., J. Biomol Screen, 2002, 7: 215). Assays were performed at room temperature in 384-well microtiter plates with an incubation volume of 20.2 μL. Solutions of test compounds were prepared in DMSO and serially diluted with DMSO to yield 8 μL of each of 10 solutions differing by 3-fold in concentration, at 32 serial dilutions per plate. 100% inhibition is determined using a known PDE10 inhibitor, which can be any compound that is present at 5,000 times its Ki value in the assay described as follows, such as papaverine (see Siuciak, et al. Neuropharmacology (2006) 51:386-396; Becker, et al. Behav Brain Res (2008) 186(2):155-60; Threlfell, et al., J Pharmacol Exp Ther (2009) 328(3):785-795), 2-{4-[pyridin-4-yl-1-(2,2,2-trifluoroethyl)-1H-pyrazol-3-yl]phenoxymethyl}quinoline succinic acid or 2-[4-(1-methyl-4-pyridin-4-yl-1H-pyrazol-3-yl)-phenoxymethyl]quinoline succinic acid (see Schmidt, et al. J Pharmacol Exp Ther (2008) 325:681-690; Threlfell, et al., J Pharmacol Exp Ther (2009) 328(3): 785-795). 0% of inhibition is determined by using DMSO (1% final concentrations). A Labcyte Echo 555 (Labcyte, Sunnyvale, Calif.) is used to dispense […] from each well of the titration plate to the 384 well assay plate. A solution of enzyme (1/7000 dilution from aliquots; sufficient to produce 20% substrate conversion) and a separate solution of FAM-labeled cAMP PDE from Molecular Devices (product # R7506), at a final concentration of 50 nM are made in the assay buffer (10 mM Tris HCl, pH 7.2, 10 mM MgCl2, 0.05% NaN3 0.01% Tween-20, and 1 mM DTT). The enzyme is added to the assay plates by the addition of 10 μL of enzyme solution to each well, shaken to mix and incubated at room temperature for 60 minutes. The substrate is then added to the assay plates by the addition of 10 μL of substrate solution to each well, shaken to mix, and incubated at room temperature for 60 minutes. […]
# Sequence of human PDE10A2 (Q9Y233 267-1055): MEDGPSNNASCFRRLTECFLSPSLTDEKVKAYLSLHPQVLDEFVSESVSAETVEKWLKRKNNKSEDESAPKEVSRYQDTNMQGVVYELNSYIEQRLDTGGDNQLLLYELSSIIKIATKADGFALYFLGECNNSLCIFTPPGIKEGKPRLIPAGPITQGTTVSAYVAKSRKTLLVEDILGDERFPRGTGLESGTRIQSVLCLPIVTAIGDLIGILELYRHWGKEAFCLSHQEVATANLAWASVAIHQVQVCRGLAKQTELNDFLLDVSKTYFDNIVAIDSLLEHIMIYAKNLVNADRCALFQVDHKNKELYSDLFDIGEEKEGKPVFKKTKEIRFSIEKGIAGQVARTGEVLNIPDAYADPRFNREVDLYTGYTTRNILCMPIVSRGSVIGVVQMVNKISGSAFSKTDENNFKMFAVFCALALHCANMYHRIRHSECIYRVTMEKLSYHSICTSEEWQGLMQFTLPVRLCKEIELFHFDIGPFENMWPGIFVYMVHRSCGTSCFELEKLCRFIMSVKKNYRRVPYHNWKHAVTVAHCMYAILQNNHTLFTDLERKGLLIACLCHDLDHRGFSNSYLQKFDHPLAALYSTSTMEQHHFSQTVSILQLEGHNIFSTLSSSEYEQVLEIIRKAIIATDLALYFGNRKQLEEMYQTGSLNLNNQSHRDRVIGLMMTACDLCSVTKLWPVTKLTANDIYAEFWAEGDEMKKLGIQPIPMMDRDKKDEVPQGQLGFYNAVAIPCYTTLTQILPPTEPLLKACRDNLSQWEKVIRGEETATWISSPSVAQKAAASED
row,Ki [nM],Compound
1,8.5,"Cc1nc(N2CC(c3nc4ccccc4n3C)C2)cc(-n2nncc2C)n1 [Example 27, 1-methyl-2-(1-(2-methyl-6-(5-methyl-1H-1,2,3-triazol-1-yl)pyrimidin-4-yl)azetidin-3-yl)-1H-benzo[d]imidazole]"
2,1.7,"Cc1cnn(-c2cc(N3CC(c4nc5ccccc5n4C)C3)nc(C)n2)n1 [Example 28, 1-methyl-2-(1-(2-methyl-6-(4-methyl-2H-1,2,3-triazol-2-yl)pyrimidin-4-yl)azetidin-3-yl)-1H-benzo[d]imidazole]"
3,3.1,"Cc1cn(-c2cc(N3CC(c4nc5ccccc5n4C)C3)nc(C)n2)nn1 [Example 29, 1-methyl-2-(1-(2-methyl-6-(4-methyl-1H-1,2,3-triazol-1-yl)pyrimidin-4-yl)azetidin-3-yl)-1H-benzo[d]imidazole]"
4,5.6,"Cc1cn(-c2cc(N3CC(c4nc5ccccc5n4C)C3)nc(C(F)(F)F)n2)nn1 [Example 30, 1-methyl-2-(1-(6-(4-methyl-1H-1,2,3-triazol-1-yl)-2-(trifluoromethyl)pyrimidin-4-yl)azetidin-3-yl)-1H-benzo[d]imidazole]"
5,1.2,"Cc1cnn(-c2cc(N3CC(c4nc5ccccc5n4C)C3)nc(C(F)(F)F)n2)n1 [Example 31, 1-methyl-2-(1-(6-(4-methyl-2H-1,2,3-triazol-2-yl)-2-(trifluoromethyl)pyrimidin-4-yl)azetidin-3-yl)-1H-benzo[d]imidazole]"
6,1.1,"Cc1cn(-c2cc(N3CC(c4nc5ccccc5n4C)C3)nc(C3CC3)n2)nn1 [Example 32, 2-(1-(2-cyclopropyl-6-(4-methyl-1H-1,2,3-triazol-1-yl)pyrimidin-4-yl)azetidin-3-yl)-1-methyl-1H-benzo[d]imidazole]"
7,0.54,"Cc1cnn(-c2cc(N3CC(c4nc5ccccc5n4C)C3)nc(C3CC3)n2)n1 [Example 33, 2-(1-(2-cyclopropyl-6-(4-methyl-2H-1,2,3-triazol-2-yl)pyrimidin-4-yl)azetidin-3-yl)-1-methyl-1H-benzo[d]imidazole]"
8,1.4,"COc1nc(N2CC(c3nc4ccccc4n3C)C2)cc(-n2ncc(C)n2)n1 [Example 34, 2-{1-[2-methoxy-6-(4-methyl-2H-1,2,3-triazol-2-yl)pyrimidin-4-yl]azetidin-3-yl}-1-methyl-1H-benzimidazole]"
9,0.81,"CCc1nc(C)nn1-c1cc(N2CC(c3nc4ccccc4n3C)C2)nc(C)n1 [Example 35, 2-(1-(6-(5-ethyl-3-methyl-1H-1,2,4-triazol-1-yl)-2-methylpyrimidin-4-yl)azetidin-3-yl)-1-methyl-1H-benzo[d]imidazole]"
10,4.5,"Cc1nc(N2CC(c3nc4ccccc4n3C)C2)cc(-n2nc(C)nc2C2CC2)n1 [Example 36, 2-(1-(6-(5-cyclopropyl-3-methyl-1H-1,2,4-triazol-1-yl)-2-methylpyrimidin-4-yl)azetidin-3-yl)-1-methyl-1H-benzo[d]imidazole]"
11,0.41,"CCCc1nc(C)nn1-c1cc(N2CC(c3nc4ccccc4n3C)C2)nc(C)n1 [Example 38, 1-methyl-2-(1-(2-methyl-6-(3-methyl-5-propyl-1H-1,2,4-triazol-1-yl)pyrimidin-4-yl)azetidin-3-yl)-1H-benzo[d]imidazole]"
12,3.1,"Cc1nc(N2CC(c3nc4ccccc4n3C)C2)cc(-n2nc(C)nc2C(C)C)n1 [Example 39, 2-(1-(6-(5-isopropyl-3-methyl-1H-1,2,4-triazol-1-yl)-2-methylpyrimidin-4-yl)azetidin-3-yl)-1-methyl-1H-benzo[d]imidazole]"
13,2,"Cc1nc(N2CC(c3nc4ccccc4n3C)C2)cc(-n2nc(C)nc2C[C@H](C)O)n1 [Example 40, (S)-1-(3-methyl-1-(2-methyl-6-(3-(1-methyl-1H-benzo[d]imidazol-2-yl)azetidin-1-yl)pyrimidin-4-yl)-1H-1,2,4-triazol-5-yl)propan-2-ol]"
14,1,"Cc1nc(N2CC(c3nc4ccccc4n3C)C2)cc(-n2nc(C)nc2C[C@@H](C)O)n1 [Example 41, (R)-1-(3-methyl-1-(2-methyl-6-(3-(1-methyl-1H-benzo[d]imidazol-2-yl)azetidin-1-yl)pyrimidin-4-yl)-1H-1,2,4-triazol-5-yl)propan-2-ol]"
15,1.9,"COCCc1nc(C)nn1-c1cc(N2CC(c3nc4ccccc4n3C)C2)nc(C)n1 [Example 42, 2-(1-(6-(5-(2-methoxyethyl)-3-methyl-1H-1,2,4-triazol-1-yl)-2-methylpyrimidin-4-yl)azetidin-3-yl)-1-methyl-1H-benzo[d]imidazole]"
16,0.49,"COC(=O)CCc1nc(C)nn1-c1cc(N2CC(c3nc4ccccc4n3C)C2)nc(C)n1 [Example 43, methyl 3-(3-methyl-1-(2-methyl-6-(3-(1-methyl-1H-benzo[d]imidazol-2-yl)azetidin-1-yl)pyrimidin-4-yl)-1H-1,2,4-triazol-5-yl)propanoate]"
17,2.6,"CCOC(=O)Cc1nc(C)nn1-c1cc(N2CC(c3nc4ccccc4n3C)C2)nc(C)n1 [Example 44, ethyl 2-(3-methyl-1-(2-methyl-6-(3-(1-methyl-1 benzo[d]imidazol-2-yl)azetidin-1-yl)pyrimidin-4-yl)-1H-1,2,4-triazol-5-yl)acetate]"
18,2,"Cc1nc(N2CC(c3nc4ccccc4n3C)C2)cc(-n2nc(C)nc2C2CCCCC2)n1 [Example 45, 2-(1-(6-(5-cyclohexyl-3-methyl-1H-1,2,4-triazol-1-yl)-2-methylpyrimidin-4-yl)azetidin-3-yl)-1-methyl-1H-benzo[d]imidazole]"
19,1.2,"Cc1nc(N2CC(c3nc4ccccc4n3C)C2)cc(-n2nc(C)nc2COc2ccccc2)n1 [Example 46, 1-methyl-2-(1-(2-methyl-6-(3-methyl-5-(phenoxymethyl)-1H-1,2,4-triazol-1-yl)pyrimidin-4-yl)azetidin-3-yl)-1H-benzo[d]imidazole]"
20,3.9,"Cc1nc(N2CC(c3nc4ccccc4n3C)C2)cc(-n2nc(C)nc2C2CC(=O)N(C)C2)n1 (stereo not drawn) [Example 47, 1-methyl-4-(3-methyl-1-(2-methyl-6-(3-(1-methyl-1H-benzo[d]imidazol-2-yl)azetidin-1-yl)pyrimidin-4-yl)-1H-1,2,4-triazol-5-yl)pyrrolidin-2-one]"
21,0.26,"Cc1nc(N2CC(c3nc4ccccc4n3C)C2)cc(-n2nc(C)nc2CN2CCCC2=O)n1 [Example 48, 1-((3-methyl-1-(2-methyl-6-(3-(1-methyl-1H-benzo[d]imidazol-2-yl)azetidin-1-yl)pyrimidin-4-yl)-1H-1,2,4-triazol-5-yl)methyl)pyrrolidin-2-one]"
22,6.8,"Cc1nc(N2CC(c3nc4ccccc4n3C)C2)cc(-n2nc(C)nc2-c2ccccc2)n1 [Example 49, 1-methyl-2-(1-(2-methyl-6-(3-methyl-5-phenyl-1H-1,2,4-triazol-1-yl)pyrimidin-4-yl)azetidin-3-yl)-1H-benzo[d]imidazole]"
23,0.35,"Cc1nc(N2CC(c3nc4ccccc4n3C)C2)cc(-n2nc(C)nc2-c2ccccc2Cl)n1 [Example 50, 2-(1-(6-(5-(2-chlorophenyl)-3-methyl-1H-1,2,4-triazol-1-yl)-2-methylpyrimidin-4-yl)azetidin-3-yl)-1-methyl-1H-benzo[d]imidazole]"
24,1.2,"Cc1nc(N2CC(c3nc4ccccc4n3C)C2)cc(-n2nc(C)nc2-c2ccccc2F)n1 [Example 51, 2-(1-(6-(5-(2-fluorophenyl)-3-methyl-1H-1,2,4-triazol-1-yl)-2-methylpyrimidin-4-yl)azetidin-3-yl)-1-methyl-1H-benzo[d]imidazole]"
